The text below walks through data of patent US20200399335A1, “MODIFIED IMMUNOMODULATORY PEPTIDE” (Aarhus Universitet, priority 2018, published 2020).

Where no end group is shown, it is not given here. The star is where a group is joined. Biotin = O=C1N[C@H]2[C@H](CS[C@H]2CCCCC(=O)*)N1

The subject of one data set is STING activity. Particulars: PBMCs from two donors, peptide pre-treatment then cGAMP; vs peptide 101.
Data set [1] concerns STING activation. Particulars: PBMCs of two donors with wildtype STING, peptide priming then HT-DNA, 20 hours; vs parental SEQ ID NO.6.
Procedure: Both donors carried STING wildtype proteins allowing us to evaluate important amino acid positions within the polypeptide.
(§1) Peripheral Blood Mononuclear cells (PBMCs) were isolated from healthy donors by Ficoll Paque gradient centrifugation (GE Healthcare). PBMCs were cultured in RPMI complete supplemented with IL-2.
(§2) To quantify functional type I IFN the reporter cell line HEK-Blue™ IFN-α/β (InvivoGen) was utilized according to the manufacturer's instructions. […] This cell line expresses secreted embryonic alkaline phosphatase under the control of the IFN-α/β inducible ISG54 promotor. SEAP activity was assessed by measuring optical density (OD) at 620 nm on a micro plate reader (ELx808, BioTEK). The standard range was made with IFN-α (A2) (PBL Assay Science).
(§3) Protein levels of the cytokines CXCL10 and IL6 in supernatants, were measured using DuoSet ELISA kits from RnD following the manufacturer's instructions.
In the next data set the test system is HSV-1 GFP. Briefly: HSV-1 GFP infection of human fibroblast, flow cytometry 48 hpi. Particulars: for viral inhibition of alanine variant compared with SEQ ID NO.6 / viral inhibition: HSV-1 GFP MOI 0.05, 48 hpi. Background: In flow cytometry, cells or beads pass a laser one at a time.
In data set [2] the test system is STING activation. The experiment in a line: Screening of alanine modified peptides in PMA-differentiated THP1 cells stimulated with 2′3′cGAMP. Particulars: PMA-treated THP1 (STING HAQ), peptide pre-stimulation 1 hour, then 2′3′cGAMP, supernatant 20 hours; alanine variant vs SEQ ID NO.6.
Source text: Screening of alanine modified peptides in THP1 cells. […] THP1 cells were differentiated into macrophages using PMA. […] Twenty hours later supernatants were harvest and used to assess the production of type I IFN (A) or CXCL10 (B). Data represent the mean±SD of biological triplicates, representative of two independent experiments
as §2, §3
Another data set deals with human fibroblast. Briefly: Cell viability test in human fibroblast (CellTiter-Glo). It counts as cell-based. Conditions: 48 hpi. The method, then: FIG. 8. Cell viability test. […] As a positive control for cell death, human fibroblast was treated with staurosporine (500 nM). Cell viability was analyzed 48 hpi.
The highest peptide concentration utilized in the present studies reached a maximum cell death percentage of less than 10%; cf. FIG. 8.
Viability tests were conducted using the CellTiter-Glo® 2.0 Assay (Promega, G9242). Each sample was conducted in technical triplicates and luminescence data analyzed.

Data set [3] in a line: Circular dichroism spectrum of polypeptides. It counts as physicochemical. Particulars: in the recommended buffer. The source says: FIG. 5. CD spectra of polypeptides with specific alanine mutations.
The Example illustrate the CD spectrum of polypeptide (SEQ ID NO. 6) and two alanine mutations (SEQ ID NO. 17 and 19). […] FIG. 5.

The subject of data set [4] is STING activation. Conditions: previously shown; no details given; cited from earlier work.

Source text for HSV-1 GFP: Screening of alanine modified peptides in human fibroblasts.
Data was processed in FlowJo (Tree Star)
Procedure for STING activity: as §1, §2, §3

For the substance “KKYKNIVLLKGLAVINDYAA ((1)..(20) An immunomodulatory polypeptide derived from the pyrin domain of human IFI16 with amino acid residue changes.) [peptide 107]”, in the data set with STING activity, the CXCL10 secretion result is “supported increased IFN and CXCL10 secretion”; the IFN secretion result is “supported increased IFN and CXCL10 secretion”; the IL6 response entry is recorded as “impaired the IL6 response”. With “KKYKNIALLKGLEVINDYHF ((1)..(20) An immunomodulatory polypeptide derived from the pyrin domain of human IFI16 with amino acid residue changes.) [peptide A7]”, in the data set on STING activation [1], the “secretion of interleukin IL6” value was “prohibited the synergistic effects”. In the data set with HSV-1 GFP, the “viral inhibition of alanine variant compared with SEQ ID NO.6” value is given as “depleted”.

Turning to “KKYKNIVLLKGLEVINAYHF ((1)..(20) An immunomodulatory polypeptide derived from the pyrin domain of human IFI16 with amino acid residue changes.) [peptide A17]”, the viral inhibition in the data set on HSV-1 GFP was ~100%. Turning to “KKYKNAVLLKGLEVINDYHF ((1)..(20) An immunomodulatory polypeptide derived from the pyrin domain of human IFI16 with amino acid residue changes.) [peptide A6]”, in the data set on STING activation [1], the “secretion of interleukin IL6” value is “prohibited the synergistic effects”. The “synergistic effect of supporting STING activation: induction of type I IFNs” value (“synergistic effect … of type I IFNs” below) in the data set with STING activation [2] was “affected polypeptide synergistic effects”. Also, in the data set on HSV-1 GFP, the “viral inhibition of alanine variant compared with SEQ ID NO.6” value is listed as “depleted”. Consider KKYKNIVLLKGLEVINDYHF-NH2 [peptide 101], for which, in the data set with human fibroblast (HSV-1 GFP, HSV-2 GFP (MOI 0.05) or uninfected), the “toxicity in human fibroblast” value was “no toxicity”. The “maximum cell death percentage” value in the data set with human fibroblast (highest peptide concentration utilized (80 μg/mL)) is given as “less than 10%”. Regarding “KKYKNIVLLAGLEVINDYHF ((1)..(20) An immunomodulatory polypeptide derived from the pyrin domain of human IFI16 with amino acid residue changes.) [peptide A10]”, in the data set on STING activation [1], the “secretion of interleukin IL6” value is reported as “damped IL6 secretion”, the “secretion of the chemokine CXCL10” value is “without affecting CXL10 responses” and the “type I IFN responses” value is “significantly increased type I IFN responses”. For the same substance, the “synergistic effect … of type I IFNs” value with STING activation [2] is on record as “affected polypeptide synergistic effects”. Moreover, the viral inhibition in the data set on HSV-1 GFP is listed as ~100%. In addition, the “antiviral effect compared with polypeptide NO. 6 at increased MOI” value in the data set with HSV-1 GFP (HSV-1 GFP MOI 0.1, 25 μg/mL, 48 hpi) is listed as “increased effect”. “KAYKNIVLLKGLEVINDYHF ((1)..(20) An immunomodulatory polypeptide derived from the pyrin domain of human IFI16 with amino acid residue changes.) [peptide A2]”: in the data set on STING activation [1], the “secretion of interleukin IL6” value is “very potent and synergistic effect”; the “secretion of the chemokine CXCL10” value was “partly impaired CXCL10”. Also, the “synergistic effect … of type I IFNs” value in the data set on STING activation [2] was “affected polypeptide synergistic effects”. Regarding “KKYKNIVLLKALEVINDYHF ((1)..(20) An immunomodulatory polypeptide derived from the pyrin domain of human IFI16 with amino acid residue changes.) [peptide A11]”, the “synergistic effect of supporting STING activation: CXCL10 cytokine secretion” value (shortened to “synergistic effect … CXCL10 cytokine secretion”) in the data set on STING activation [2] was “strongly affected the synergistic effects”. Besides, the “secondary structure from CD spectrum” value in data set [3] is on record as “random coil-coil formation”.

Regarding “KKYKNIVLLKGLEAINDYHF ((1)..(20) An immunomodulatory polypeptide derived from the pyrin domain of human IFI16 with amino acid residue changes.) [peptide A14]”, the “viral inhibition of alanine variant compared with SEQ ID NO.6” value in the data set on HSV-1 GFP is “decreased”.

In the case of “Biotin-EDIPTLEDLAETLKKEKLKGRKKRRQRRRPQ-NH2 [S7]”, the “synergistic effects on STING activation” value with STING activation [4] was “not to lead to synergistic effects on STING activation”. Consider “KKYKNIVLLKGLEVINDYHA ((1)..(20) An immunomodulatory polypeptide derived from the pyrin domain of human IFI16 with amino acid residue changes.) [peptide A20]”, for which the “synergistic effect … CXCL10 cytokine secretion” value in the data set on STING activation [2] is “strongly affected the synergistic effects”. For the substance “KKYKNIVLLKGLAVINDYHF ((1)..(20) An immunomodulatory polypeptide derived from the pyrin domain of human IFI16 with amino acid residue changes.) [peptide A13]”, in the data set with STING activation [1], the “secretion of the chemokine CXCL10” value is on record as “without affecting CXL10 responses” and the “type I IFN responses” value is reported as “significantly increased type I IFN responses”. In the data set with STING activation [2], the “synergistic effect … CXCL10 cytokine secretion” value was “strongly affected the synergistic effects” and the “synergistic effect … of type I IFNs” value was “affected polypeptide synergistic effects”. In addition, the “secondary structure from CD spectrum” value in data set [3] is “random coil-coil formation”. On to “KKAKNIVLLKGLEVINDYHF ((1)..(20) An immunomodulatory polypeptide derived from the pyrin domain of human IFI16 with amino acid residue changes.) [peptide A3]”, for which, in the data set on STING activation [1], the “secretion of interleukin IL6” value is “very potent and synergistic effect”.

As for “KKYKNIVLLKGLEVIADYHF ((1)..(20) An immunomodulatory polypeptide derived from the pyrin domain of human IFI16 with amino acid residue changes.) [peptide A16]”, the “secretion of interleukin IL6” value with STING activation [1] is on record as “prohibited the synergistic effects”. For “KKYKNIVLLKGAEVINDYHF ((1)..(20) An immunomodulatory polypeptide derived from the pyrin domain of human IFI16 with amino acid residue changes.) [peptide A12]”, in the data set on STING activation [2], the “synergistic effect … of type I IFNs” value is reported as “affected polypeptide synergistic effects”.

On to “KKYKNIVALKGLEVINDYHF ((1)..(20) An immunomodulatory polypeptide derived from the pyrin domain of human IFI16 with amino acid residue changes.) [peptide A8]”, for which the “synergistic effect … of type I IFNs” value in the data set on STING activation [2] is on record as “affected polypeptide synergistic effects”. With “KKYKNIVLAKGLEVINDYHF ((1)..(20) An immunomodulatory polypeptide derived from the pyrin domain of human IFI16 with amino acid residue changes.) [peptide A9]”, in the data set on STING activation [2], the “synergistic effect … of type I IFNs” value is on record as “affected polypeptide synergistic effects”. Regarding “KKYKNIVLLKGLEVANDYHF ((1)..(20) An immunomodulatory polypeptide derived from the pyrin domain of human IFI16 with amino acid residue changes.) [peptide A15]”, the “secretion of interleukin IL6” value with STING activation [1] is given as “prohibited the synergistic effects”. With “KKYKNIVLLKGLEVINDYAF ((1)..(20) An immunomodulatory polypeptide derived from the pyrin domain of human IFI16 with amino acid residue changes.) [peptide A19]”, in the data set on STING activation [2], the “synergistic effect … CXCL10 cytokine secretion” value was “strongly affected the synergistic effects”.
